Square brackets hold non-standard residues; d marks the D form. Ends that are not written are not given here. pGlu = O=C1CC[C@@H](C(=O)O)N1
Assays:
[1] = system: renal nitric oxide synthase (NOS); experiment: Activation of kidney NOS in mice (3H-arginine to 3H-citrulline conversion); format: in vivo, mouse; details: HOE 140 10 μg/Kg for 1 hour
Protocol: Male Swiss albinos weighing 22-25 g were injected intraperitoneally with: (1) 50 μl 0.9% NaCl (basal level control), or with 0.9% NaCl supplemented with LPS (2 mg/Kg) (positive control); (2) SEQ ID NO 8 (0.21, 0.91, and 3.47 mg/Kg); (3) SEQ ID NO 8 (0.91 mg/Kg) injected into animals pre-treated via intraperitoneally with L-NAME (3 mg/Kg for 1 h); (4) SEQ ID NO 8 (0.91 mg/Kg) injected into animals pre-treated via intraperitoneally with HOE140 (10 μg/Kg for 1 h); (5) captopril (0.21, 0.91, and 3.47 mg/Kg). After 5, 15, 30, 60, 120, and 180 min, animals were killed, their kidneys removed and stored at −70° C. Animals of group 3 and 4 were killed 30 minutes after administration of the oligopeptide.
NOS activity was measured according to Bredt and Snyder [Bredt D S and Snyder S H. Isolation of nitric oxide synthetase, a calmodulin-requiring enzyme. Proc. Natl. Acad. Sci. USA, 87, 682-685, 1990], and is based on estimating the enzymatic activity of the conversion of L-arginine into L-citrulline using ^3H-arginine as a reference for the conversion.
The kidneys were minced in homogenizing buffer, pH 7.4 (20 mM HEPES, 0.32 M saccharose, 1 mM DTT, 0.1 mM EDTA, 1 mM PMSF), and sonicated. Protein dosage was performed according to Bradford (1976), followed by a chromatography step in a 300 μL Dowex 50WX8-400 column.
For the enzymatic assay, 80 μg total protein from each sample were incubated for 60 minutes at 37° C. in 200 μL buffer (30 mM HEPES, 1 mM EDTA, 1.25 mM CaCl2, 1 mM NADPH, 10 μg/mL calmodulin, 4 μM FAD, 4 μM FMN, 25 μM BH4, 120 nM arginine, 0.5 μCi ^3H-arginine). The reaction was stopped by the addition of 1 ml 20 mM HEPES, and incubation in ice bath. ^3H-citrulline was separated from ^3H-arginine by ion-exchange chromatography in a 300 μL Dowex 50WX8-400 column. Radioactivity of the eluates was measured in a beta-counter. After converting cpm (counts per minute) into dpm (disintegration per minute), the specific activity of the nitric oxide synthase (NOS) was calculated using the following equation: […]

[2] = system: SK-N-AS cells (human neuroblastoma); experiment: Free intracellular Ca2+ concentration in SK-N-AS cells (fluo-3 AM, confocal microscopy); format: cell-based
Protocol: In these experiments the variation in free intracellular calcium [Ca^2+]i concentration was measured in SK-N-AS cells (human neuroblastoma, ATCC No. CRL-2137) after addition of 1 μmolar of peptides SEQ ID NO 1 or SEQ ID NO 8, or of 1 μmolar captopril. Cells were kept in DMEM (Dulbecco Modified Medium), supplemented with 10% fetal bovine serum (FBS) and 1% non-essential amino acids, at 5% CO2 atmosphere, at 37° C., and 95% relative humidity. Cells were treated with trypsin, and replicated at adequate cell concentrations.
Measurements of variation in the concentration of free [Ca^2+]i were performed with a confocal microscope LSM 510 (Zeiss, Jena, Germany), as described by Martins et al., (Martins et al., Neuronal differentiation of P19 embryonal carcinoma cells modulates kinin B2 receptor gene expression and function. J. Biol. Chem. 280: 19576-19586, 2005). Approximately 5×10^4 SK-N-AS cells were plated on 60 mm plates 24 hours prior to measurement, and then treated with 4 μM fluo-3 AM (Invitrogen Corporation) in 0.5% DMSO and 0.1% non-ionic surfactant pluronic acid F-127 for 30 minutes at 37° C. Cells were washed with DMEM containing 10% FBS, and transferred to defined medium (5 μg/ml insulin, 30 μg/ml transferrin, 20 μM ethanolamine, 30 nM sodium selenite, 1 μM sodium pyruvate, 1% non-essential amino acids, 1 mM glutamine, 100 μg/ml penicillin, 100 μg/ml streptomycin, 10 mM HEPES pH 7.4 in DMEM). The fluorescent fluo-3 AM was excited at 488 nm, and the fluorescence measured at 526 nm.
Variations in the [Ca^2+]i were measured in non-stimulated cells, and in cells stimulated with peptides SEQ ID NO 1 or SEQ ID NO 8, or with captopril (Sigma Aldrich). Increase of fluorescence was monitored for 2 minutes, and images were acquired in 256×256 pixels every second. At the end of each experiment, 5 μM ionophore (4-Br-A23187) were added, followed by 10 mM EGTA, or 20 μM digitonin to determine maximum and minimum fluorescence, Fmax and Fmin respectively, as described by Grynkiewicz et al., (1985).
Intracellular calcium concentrations [Ca^2+]i, related to fluorescence (F) values obtained after addition of peptides SEQ ID NO 1 or SEQ ID NO 8, were calculated with the equation: [Ca^2+]=Kd(F−Fmin)/(Fmax−F), assuming Kd=450 nM for fluo-3 AM (Hallett et al., 1990).

[3] = biological target: T1, argininosuccinate synthase (AsS) (Mus musculus, UniProt P16460); experiment: Affinity chromatography of mouse kidney extract on peptide column; identification of the bound protein; format: binding; details: affinity column with SEQ ID NO 7 as ligand; crude mouse kidney extract
T1 construct: Cytosolic and membrane fractions of the renal extract (100 mg/ml total protein) were applied to separate columns; from tissue; host or cells: Balb-c mouse kidney, cytosolic and membrane fractions
T1 sequence (P16460 1-412): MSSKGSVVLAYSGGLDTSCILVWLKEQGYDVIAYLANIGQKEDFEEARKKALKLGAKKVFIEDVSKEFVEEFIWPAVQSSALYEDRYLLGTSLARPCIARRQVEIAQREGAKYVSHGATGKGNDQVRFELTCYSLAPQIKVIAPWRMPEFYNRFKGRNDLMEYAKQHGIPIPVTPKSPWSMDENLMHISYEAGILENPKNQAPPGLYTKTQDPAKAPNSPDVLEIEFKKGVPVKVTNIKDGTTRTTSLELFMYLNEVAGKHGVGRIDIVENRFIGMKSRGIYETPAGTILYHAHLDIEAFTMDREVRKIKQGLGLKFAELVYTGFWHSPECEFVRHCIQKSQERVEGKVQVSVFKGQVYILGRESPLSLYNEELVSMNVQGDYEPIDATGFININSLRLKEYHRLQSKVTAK
Protocol: Starting material were the cytosolic and plasma membrane crude extracts of mouse kidney cells homogenized in the buffer 10 mM Tris-HCl pH 7.5, 25 mM saccharose, 1 mM EDTA, and 1 mM PMSF (cytosolic fraction), or 1% Triton X-100 (plasma membrane fraction). Supernatants were dialyzed in 0.2 M NaHCO3, 0.5 M NaCl, pH 8.3, and separately applied to the affinity chromatography column Hitrap NHS-activated (GE Healthcare) coupled to 5 mg of peptide SEQ ID NO 7.
Preparing affinity columns. Columns were washed three times with 2 ml 1 mM HCl before homogeneous preparations of SEQ ID NO 7 (5 mg in 1 ml 0.2 M NaHCO3, 0.5 M NaCl, pH 8.3) were applied. After 30 min incubation at room temperature, peptides had been coupled, and the column was inactivated with buffer A (0.5 M ethanolamine, 0.5 M NaCl, pH 8.3), and washed with 0.2 M NaHCO3, 0.5 M NaCl, pH 8.3, and stored at 4° C. in 50 mM Na2HPO4, 0.1%, NaN3, pH 7.0. The columns were called HiTrap-SEQ. ID NO 7. […]
Affinity chromatography and analysis of the retained proteins by SDS-PAGE. […] Protein concentration (mg/ml) was determined by the method of Bradford (Bradford, M. M. A rapid and sensitive method for the quantitation of microgram quantities of protein utilizing the principle of protein-dye binding. Anal. Biochem. 72: 248-254, 1976) with the Protein Assay reagent from BioRad. […]

[4] = biological target: T2, argininosuccinate synthase (AsS) (mouse, UniProt P16460 1-412); experiment: cell-based or functional assay
T2 sequence: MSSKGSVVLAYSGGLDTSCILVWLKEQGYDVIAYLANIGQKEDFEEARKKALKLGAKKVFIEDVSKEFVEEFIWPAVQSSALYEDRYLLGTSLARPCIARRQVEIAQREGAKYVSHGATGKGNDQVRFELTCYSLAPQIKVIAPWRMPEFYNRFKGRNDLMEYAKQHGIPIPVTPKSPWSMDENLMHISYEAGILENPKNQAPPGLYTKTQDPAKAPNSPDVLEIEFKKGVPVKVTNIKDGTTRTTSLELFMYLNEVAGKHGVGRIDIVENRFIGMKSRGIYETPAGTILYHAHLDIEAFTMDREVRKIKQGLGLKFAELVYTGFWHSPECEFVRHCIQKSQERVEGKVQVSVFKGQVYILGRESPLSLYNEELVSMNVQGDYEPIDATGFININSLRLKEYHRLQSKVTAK

HOE 140
effect of B2 receptor blockade on the NOS activity increase caused by SEQ ID NO 8 [1]: not able to prevent the increase

ENWPHPQIPP [SEQ ID NO 7]
time from the peak until the [Ca2+]i plateau [2]: 20 s | [Ca2+]i response peak ([2]; immediately after addition of the peptide): ~250 nM | binding to the approx. 46 kDa protein (AsS) of mouse kidney extract [3]: bound

[pGlu]NWPHPQIPP [oligopeptide SEQ ID NO 8]
production rate of phosphate (enzymatic activity of the AsS) [4]: ~2.5 fold

Source: patent US20100035822A1, “PROLINE-RICH PEPTIDES, PHARMACEUTICAL COMPOSITION, USE OF ONE OR MORE PEPTIDES AND METHOD OF TREATMENT” (priority 2006, published 2010)
